Test results reported in US9328093B2, “Selective inhibitors of ubiquitin specific protease 7, the pharmaceutical compositions thereof and their therapeutic applications” (HYBRIGENICS SA, priority 2010, dated 2016).

Tests used:
[1] = biological target: T1, USP7 (Homo sapiens, UniProt Q93009); experiment: USP7 activity assay (Ub-AMC substrate); type: biochemical; settings: Ub-AMC 300 nM, USP7 100 pM, 30 min pre-incubation
T1 construct: Full-length wild-type human USP7 and its catalytic mutant (cysteine 223 replaced by alanine, C223A) were produced as N-terminally His-tagged fusions; His (N); made in house; host or cells: Spodoptera frugiperda Sf9 (or High Five) insect cells, baculovirus pFastBac-HT-B
Text: The cDNA encoding USP7 was obtained by PCR amplification from placenta mRNA. USP7 cDNA was subcloned by PCR into a baculovirus expression vector (pFastBac-HT; Invitrogen). Full-length wild-type human USP7 and its catalytic mutant (cysteine 223 replaced by alanine, C223A) were produced as N-terminally His-tagged fusions in Spodoptera frugiperda cells (Sf9, Invitrogen), using the Bac-to-Bac Baculovirus system from Invitrogen according to the manufacturer's instructions. pFastBac-HT-B-USP7 was used to transform DH10bac cells (Invitrogen), and blue/white selection was carried out on X-gal/IPTG agar plates. Bacmid DNA was prepared by an alkaline lysis procedure. The integrity of the bacmid minipreps and their orientation were checked by PCR, using generic and specific primers. Sf9 insect cells were cultured in InsectXpress medium (Cambrex) at 27° C. and transfected with the corresponding bacmid, using GeneShuttle 40 (Q-BIOgen). Viruses were recovered in the supernatant 72 h after transfection. Viruses were amplified by infecting insect cells (Sf9 or High Five cells; invitrogen) in 50 ml InsectXpress medium in a 150 cm^2 cell culture flask with 500 μl of the supernatant from transfected Sf9 cells. Following the second round of amplification, infected cells were recovered by rapid SDS lysis, boiled for 5 min at 100° C., sonicated briefly and centrifuged for 20 min at 14,000 g. Expression levels in infected Sf9 cells were compared with those in uninfected cells. Fusion proteins were then allowed to bind to TALON beads (BD Biosciences, TALON metal affinity resin) for 30 min at 4° C. with gentle rocking. Beads were extensively washed (50 mM sodium phosphate buffer pH 7.0, 500 mM NaCl, 10 mM Imidazole, 0.5% Triton X-100 and 10% glycerol) and bound proteins were eluted in wash buffer supplemented with 250 mM Imidazole (Sigma). Eluted fractions were resolved on 4-12% NuPAGE gels (Novex, Invitrogen). Fractions containing high concentrations of purified proteins (purity >95%) were dialyzed (20 mM Tris HCl pH 7.6, 200 mM NaCl, 1 mM DTT, 1 mM EDTA and 10% glycerol) were aliquoted and snap frozen in liquid nitrogen before storage at −80° C.
USP7 was diluted in USP buffer (50 mM Tris HCl; 0.5 mM EDTA; 5 mM DTT; 0.01% Triton X-100; Bovine Serum Albumin 0.05 mg·ml^−1 pH7.6). Compounds stocks (10 mM) were stored at −20° C. in DMSO. Compounds were tested at different concentrations: from 200 μM to 91 nM.
Reactions were performed as duplicates in Black 384 well plates (small volumes microplates; Greiner; 10 μl final reaction volume). The substrate concentration for USP7 was 300 nM Ub-AMC (Chem. Biol., 2003, 10, p. 837-846) (Boston Biochem). The concentrations of the enzyme (USP7) in specificity assays was 100 pM. The concentrations were determined in order to perform specificity assays under initial velocities at fixed substrate concentration. Compounds were pre-incubated with enzymes for 30 minutes at 25° C. Reactions were initiated by addition of substrate to the plates containing the enzymes (+/− compounds) diluted in assay buffer. Reactions were incubated for 60 minutes at 37° C. Reactions were stopped by adding acetic acid (100 mM final). Readings were performed on a Pherastar Fluorescent Reader (BMG). λ
Emission 380 nm; λ Excitation=460 nm. Data (mean values +/− standard deviation) were analyzed as % of control (no compound) and plotted as percentage versus the Log of the compound concentration using GraphPad (Prism). Data were fitted to a sigmoidal model (variable slope).

[2] = biological target: T2, UCH-L1 (Homo sapiens, UniProt P09936); experiment: UCH-L1 activity assay (Ub-AMC substrate); type: biochemical; settings: Ub-AMC 300 nM, UCH-L1 2.5 nM
T2 sequence (P09936 1-223): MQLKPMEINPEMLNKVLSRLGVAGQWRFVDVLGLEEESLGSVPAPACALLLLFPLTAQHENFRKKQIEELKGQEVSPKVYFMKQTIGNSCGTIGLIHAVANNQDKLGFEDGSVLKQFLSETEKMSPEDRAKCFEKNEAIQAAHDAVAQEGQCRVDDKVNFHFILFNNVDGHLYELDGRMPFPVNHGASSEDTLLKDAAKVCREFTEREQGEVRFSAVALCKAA
Protocol: UCH-L1 was diluted in USP buffer (50 mM Tris HCl; 0.5 mM EDTA; 5 mM DTT; 0.01% Triton X-100; Bovine Serum Albumin 0.05 mg·ml^−1 pH7.6). Compounds stocks (100 mM) were stored at −20° C. in DMSO. Compounds were tested at different concentrations: from 200 μM to 91 nM.
Reactions were performed as duplicates in Black 384 well plates (small volume microplates; Greiner; 10 μl final reaction volume). The substrate concentration for UCH-L1 was 300 nM Ub-AMC (Boston Biochem). The concentration of the enzyme (UCH-L1) in specificity assays was 2.5 nM. The concentrations were determined in order to perform specificity assays under initial velocities at fixed substrate concentration. Compounds were pre-incubated with enzymes for 30 minutes at 25° C. Reactions were initiated by addition of substrate to the plates containing the enzymes (+/− compounds) diluted in assay buffer. Reactions were incubated for 60 minutes at 37° C. Reactions were stopped by adding acetic acid (100 mM final). Readings were performed on a Pherastar Fluorescent Reader (BMG). λ Emission 380 nm; λ Excitation=460 nm. Data (mean values +/− standard deviation) were analyzed as % of control (no compound) and plotted as percentage versus the Log of the compound concentration using GraphPad (Prism). Data were fitted to a sigmoidal model (variable slope).

| IC50 [1] | IC50 [2] | Compound |
| --- | --- | --- |
| 13.7 µM | > 200 µM | CN1CCCC1CCNC(=O)c1ccc2c(Cl)c3c(nc2c1)CCCC3 (stereo not drawn) [Example 17, 9-chloro-N-(2-(1-methylpyrrolidin-2-yl)ethyl)-5,6,7,8-tetrahydroacridino-3-carboxamide] |
| 18.3 µM | > 200 µM | O=C(NCc1cccc(CN2CCCC2)c1)c1ccc2c(Cl)c3c(nc2c1)CCCC3 [Example 18, 9-chloro-N-(3-(pyrrolidin-1-ylmethyl)benzyl)-5,6,7,8-tetrahydroacridine-3-carboxamide] |
| 8.2 µM | > 200 µM | O=C(Nc1cccc(CN2CCCC2)c1)c1ccc2c(Cl)c3c(nc2c1)CCCC3 [Example 19, 9-chloro-N-(3-(pyrrolidin-1-ylmethyl)phenyl)-5.6,7,8-tetrahydroacridine-3-carboxamide] |
| 45.5 µM | > 200 µM | CC1CCCCN1CCCNC(=O)c1ccc2c(Cl)c3c(nc2c1)CCCC3 (stereo not drawn) [Example 20, 9-chloro-N-(3-(2-methylpiperidin-1-yl)propyl)-516,7,8-tetrahydroacridine-3-carboxamide] |
| 16.3 µM | > 200 µM | O=C(NCc1ccc(CN2CCCC2)cc1)c1ccc2c(Cl)c3c(nc2c1)CCCC3 [Example 21, 9-chloro-N-(4-(pyrrolidin-1-ylmethyl)benzyl)-5,6,7,8-tetrahydroacridine-3-carboxamide] |
| 27.4 µM | > 200 µM | COc1ccc(CN2CCC(CNC(=O)c3ccc4c(Cl)c5c(nc4c3)CCCC5)CC2)cc1 [Example 22, 9-chloro-N-((1-(4-methoxybenzyl)piperidin-4-yl)methyl)-5,6,7,8-tetrahydroacridine-3-carboxamide] |
| 33.1 µM | > 200 µM | CN(C)c1ccc(CN2CCC(CNC(=O)c3ccc4c(Cl)c5c(nc4c3)CCCC5)CC2)cc1 [Example 23] |
| 45.2 µM | > 200 µM | O=C(NCC1CCNCC1)c1ccc2c(Cl)c3c(nc2c1)CCCC3 [Example 24, 9-chloro-N-((piperidin-4-yl)methyl)-5,6,7,8-tetrahydroacridine-3-carboxamide] |
| 59.5 µM | > 200 µM | O=C(NCC(CN1CCCC1)C(O)c1ccccc1)c1ccc2c(Cl)c3c(nc2c1)CCCC3 (stereo not drawn) [Example 25, 9-chloro-N-(3-hydroxy-3-phenyl-2-pyrrolidin-1-ylmethylpropyl)-5,6,7,8-tetrahydroacridine-3-carboxamide] |
